Several values for one entry are separate records, joined by “and”; a condition that tells them apart may be missing. Equal values may be shown once. Inconclusive results and toxic doses are left out. No stated cut-off is given here; in the data, active means T/C of 150% or more; inactive means T/C below 125%.
System: L1210 leukemia ip in BDF1 mice, survival T/C
Assay: NCI In Vivo Anticancer Drug Screen. Data for tumor model L1210 Leukemia (intraperitoneal) in B6D2F1 (BDF1) mice
Settings: endpoint: mean survival time, higher = longer survival
How it was run: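 Read-out is survival time, reported as the treated-group measurement over the vehicle-control measurement.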

[1] = dose: 15.0 mg/kg/injection, schedule: Q01DX Z (ip), vehicle: saline
[2] = dose: 5.0 mg/kg/injection, schedule: Q01DX009 (ip), vehicle: saline
[3] = dose: 10.0 mg/kg/injection, schedule: Q01DX009 (ip), vehicle: saline
[4] = dose: 20.0 mg/kg/injection, schedule: Q01DX009 (ip), vehicle: saline
[5] = dose: 100.0 mg/kg/injection, schedule: Q01DX009 (ip), vehicle: Klucel (hydroxypropylcellulose) (HPC)
[6] = dose: 100.0 mg/kg/injection, schedule: Q04DX003 (ip), vehicle: Klucel (hydroxypropylcellulose) (HPC)
[7] = dose: 200.0 mg/kg/injection, schedule: Q01DX009 (ip), vehicle: Klucel (hydroxypropylcellulose) (HPC)
[8] = dose: 200.0 mg/kg/injection, schedule: Q04DX003 (ip), vehicle: Klucel (hydroxypropylcellulose) (HPC)
[9] = dose: 400.0 mg/kg/injection, schedule: Q04DX003 (ip), vehicle: Klucel (hydroxypropylcellulose) (HPC)
[10] = dose: 100.0 mg/kg/injection, schedule: Q01DX001 (ip), vehicle: Klucel (hydroxypropylcellulose) (HPC)
[11] = dose: 200.0 mg/kg/injection, schedule: Q01DX001 (ip), vehicle: Klucel (hydroxypropylcellulose) (HPC)
[12] = dose: 400.0 mg/kg/injection, schedule: Q01DX001 (ip), vehicle: Klucel (hydroxypropylcellulose) (HPC)
[13] = dose: 400.0 mg/kg/injection, schedule: Q01DX009 (ip), vehicle: Klucel (hydroxypropylcellulose) (HPC)
[14] = dose: 100.0 mg/kg/injection, schedule: Q04DX002 (ip), vehicle: Klucel (hydroxypropylcellulose) (HPC)
[15] = dose: 200.0 mg/kg/injection, schedule: Q04DX002 (ip), vehicle: Klucel (hydroxypropylcellulose) (HPC)
[16] = dose: 400.0 mg/kg/injection, schedule: Q04DX002 (ip), vehicle: Klucel (hydroxypropylcellulose) (HPC)
[17] = dose: 100.0 mg/kg/injection, schedule: Q01DX009 (ip), vehicle: saline with Tween-80
[18] = dose: 100.0 mg/kg/injection, schedule: Q04DX003 (ip), vehicle: saline with Tween-80

Measured: T/C

CN=C(NCCCOC)c1ccc(NC(=O)c2ccc(C(=O)Nc3ccc(C(=NC)NCCCOC)cc3)c([N+](=O)[O-])c2)cc1
inactive: dose: 1.0 mg/kg/injection, schedule: Q01DX Z (ip), vehicle: carboxymethylcellulose (CMC) 91 % of control | dose: 1.88 mg/kg/injection, schedule: Q01DX Z (ip), vehicle: saline 92 % of control | dose: 2.0 mg/kg/injection, schedule: Q01DX Z (ip), vehicle: carboxymethylcellulose (CMC) 91 % of control | dose: 3.75 mg/kg/injection, schedule: Q01DX Z (ip), vehicle: saline 98 % of control | dose: 4.0 mg/kg/injection, schedule: Q01DX Z (ip), vehicle: carboxymethylcellulose (CMC) 92 % of control | dose: 7.5 mg/kg/injection, schedule: Q01DX Z (ip), vehicle: saline 104 % of control | dose: 8.0 mg/kg/injection, schedule: Q01DX Z (ip), vehicle: carboxymethylcellulose (CMC) 95 % of control | dose: 15.0 mg/kg/injection, schedule: Q01DX Z (ip), vehicle: carboxymethylcellulose (CMC) 101 % of control | [1] 92 % of control

CCCc1cccc[n+]1CC(=O)c1ccccc1
inactive: dose: 6.25 mg/kg/injection, schedule: Q01DX009 (ip), vehicle: saline sonified 115 % of control | dose: 12.5 mg/kg/injection, schedule: Q01DX009 (ip), vehicle: saline sonified 107 % of control | dose: 25.0 mg/kg/injection, schedule: Q01DX009 (ip), vehicle: saline sonified 91 % of control

CC(=O)c1cccc(NC(=O)Nc2cccc(C(C)=O)c2)c1
inactive: dose: 2.5 mg/kg/injection, schedule: Q01DX009 (ip), vehicle: saline 101 % of control | [2] 95 % of control | [3] 98 % of control | [4] 93 % of control and 101 % of control | dose: 40.0 mg/kg/injection, schedule: Q01DX009 (ip), vehicle: saline 90 % of control | dose: 80.0 mg/kg/injection, schedule: Q01DX009 (ip), vehicle: saline 93 % of control | dose: 160.0 mg/kg/injection, schedule: Q01DX009 (ip), vehicle: saline 90 % of control | dose: 320.0 mg/kg/injection, schedule: Q01DX009 (ip), vehicle: saline 95 % of control

CC(C)=CCC(=O)NC(=O)NS(=O)(=O)c1ccc(C)cc1
inactive: dose: 10.2 mg/kg/injection, schedule: Q01DX009 (ip), vehicle: Klucel (hydroxypropylcellulose) (HPC) 100 % of control | [5] 96 % of control | [6] 100 % of control | [7] 100 % of control | [8] 102 % of control | [9] 101 % of control

Cc1ccc(C(=O)NN2C(N)=NC(N)=NC2(C)C)cc1
inactive: dose: 100.0 mg/kg/injection, schedule: Q01DX009 (ip), vehicle: saline sonified 111 % of control | dose: 200.0 mg/kg/injection, schedule: Q01DX009 (ip), vehicle: saline sonified 92 % of control

NC(N)=N/N=C/c1cc([N+](=O)[O-])ccc1O
inactive: [1] 120 % of control | dose: 30.0 mg/kg/injection, schedule: Q01DX Z (ip), vehicle: saline 98 % of control | dose: 60.0 mg/kg/injection, schedule: Q01DX Z (ip), vehicle: saline 98 % of control | dose: 60.0 mg/kg/injection, schedule: Q01DX Z (oral), vehicle: saline 100 % of control | dose: 120.0 mg/kg/injection, schedule: Q01DX Z (ip), vehicle: saline 96 % of control | dose: 120.0 mg/kg/injection, schedule: Q01DX Z (oral), vehicle: saline 96 % of control

NC(N)=NCC(CCN1CCCCC1)c1cccc2ccccc12 (stereo not drawn)
inactive: [2] 105 % of control | [3] 100 % of control | dose: 12.5 mg/kg/injection, schedule: Q04DX002 (ip), vehicle: saline 93 % of control | [4] 106 % of control | dose: 25.0 mg/kg/injection, schedule: Q04DX002 (ip), vehicle: saline 93 % of control

CCCCCCCCCCCCCCBr
inactive: dose: 37.5 mg/kg/injection, schedule: Q01DX Z (ip), vehicle: carboxymethylcellulose (CMC) 100 % of control | dose: 75.0 mg/kg/injection, schedule: Q01DX Z (ip), vehicle: carboxymethylcellulose (CMC) 100 % of control | [10] 107 % of control | dose: 150.0 mg/kg/injection, schedule: Q01DX Z (ip), vehicle: carboxymethylcellulose (CMC) 100 % of control | [11] 98 % of control | dose: 300.0 mg/kg/injection, schedule: Q01DX Z (ip), vehicle: carboxymethylcellulose (CMC) 91 % of control | [12] 94 % of control

O=S(=O)(/N=C1\C=CC(Br)=C\C1=N/S(=O)(=O)c1ccccc1)c1ccccc1
inactive: [10] 89 % of control | [11] 106 % of control | [12] 101 % of control

O=C(NC(=S)N1CC1)c1ccccc1
inactive: dose: 100.0 mg/kg/injection, schedule: Q04DX002 (sc), vehicle: olive oil, sesame oil, peanut oil 100 % of control | dose: 200.0 mg/kg/injection, schedule: Q04DX002 (sc), vehicle: olive oil, sesame oil, peanut oil 103 % of control | dose: 400.0 mg/kg/injection, schedule: Q04DX002 (sc), vehicle: olive oil, sesame oil, peanut oil 100 % of control

CC(=O)Nc1ncc(/C=C/c2ccc([N+](=O)[O-])cc2)c(NC(C)=O)n1
inactive: [10] 100 % of control | [11] 87 % of control | [12] 87 % of control

CCOC(=O)c1cc(C(=O)OC)[nH]c(=O)c1C#N
inactive: [5] 93 % of control | [6] 92 % of control | [7] 92 % of control | [8] 92 % of control | [13] 90 % of control | [9] 88 % of control

CC1(C)OC2C(CO)OC(OCc3ccccc3)C2O1 (stereo not drawn)
inactive: dose: 50.0 mg/kg/injection, schedule: Q04DX003 (ip), vehicle: saline 100 % of control | dose: 100.0 mg/kg/injection, schedule: Q04DX003 (ip), vehicle: saline 91 % of control | dose: 200.0 mg/kg/injection, schedule: Q04DX003 (ip), vehicle: saline 105 % of control | dose: 400.0 mg/kg/injection, schedule: Q04DX003 (ip), vehicle: saline 88 % of control

O=C(NC1CCCCC1)Oc1ccc(Cl)cc1Cl
inactive: [14] 93 % of control | [15] 96 % of control | [16] 93 % of control

CN(C)c1ccc(CNc2ccc(Cl)cc2)cc1
inactive: [6] 91 % of control | [8] 89 % of control | [9] 93 % of control

CC[P+]1(c2ccccc2)CCCc2ccc3ccccc3c21 (stereo not drawn)
inactive: dose: 6.25 mg/kg/injection, schedule: Q01DX009 (ip), vehicle: saline with Tween-80 117 % of control

CCOP(N)(=S)OCC
inactive: dose: 75.0 mg/kg/injection, schedule: Q01DX001 (ip), vehicle: saline 102 % of control | dose: 150.0 mg/kg/injection, schedule: Q01DX001 (ip), vehicle: saline 102 % of control

COC1OC(COC(=O)c2ccccc2)C(OC(=O)Nc2ccccc2)C1O (stereo not drawn)
inactive: [17] 90 % of control | [18] 93 % of control | dose: 200.0 mg/kg/injection, schedule: Q01DX009 (ip), vehicle: saline with Tween-80 100 % of control | dose: 200.0 mg/kg/injection, schedule: Q04DX003 (ip), vehicle: saline with Tween-80 98 % of control | dose: 400.0 mg/kg/injection, schedule: Q01DX009 (ip), vehicle: saline with Tween-80 95 % of control | dose: 400.0 mg/kg/injection, schedule: Q04DX003 (ip), vehicle: saline with Tween-80 92 % of control

S=C(Nc1ccccc1)c1ccccc1
inactive: [14] 89 % of control | [15] 92 % of control | [16] 105 % of control

O=S(=O)(O)c1ccc(N=Nc2ccc(O)cc2)cc1
inactive: dose: 25.0 mg/kg/injection, schedule: Q01DX009 (ip), vehicle: saline with Tween-80 104 % of control | dose: 50.0 mg/kg/injection, schedule: Q01DX009 (ip), vehicle: saline with Tween-80 102 % of control | [5] 88 % of control | [17] 101 % of control | [6] 92 % of control and 98 % of control | [18] 107 % of control | [7] 88 % of control | [8] 92 % of control and 102 % of control | [13] 90 % of control | [9] 97 % of control
